Test results taken from patent US10160971B2, “Methods of modulating WARS2” (NATIONAL UNIVERSITY OF SINGAPORE, priority 2014, dated 2018).
Residues, ends and D or L forms follow the SMILES beside them. *: point of attachment. Cbz = O=C(OCc1ccccc1)*

Assays:
RPL14a = experiment: Loss of RPL14a on WARS2 over-expression, reversal by proteasome inhibitor; type: cell-based
Protocol: Cells were lysed in cell lysis buffer (9803, Cell Signaling) containing protease inhibitor (Sigma) and phosphatase inhibitor (Halt Phosphase inhibitor Cocktail, Thermo Scientific) and PMSF (0.5 mM Active Motif). Cell lysate was then briefly sonicated and centrifuged for 10 minutes at 14,000 g (4° C.). Supernatants were retained and protein concentrations were determined using the bicinchoninic acid assay with bovine serum albumin standards. Protein samples (20 μg) were separated on 10% or 13% SDS-polyacrylamide gels, transferred to nitrocellulose membranes, and probed with antibodies as described in the figure legends. Immunoreactive bands were visualized with a horseradish peroxidase-conjugated secondary antibody using Peroxide and LumiGlo reagents (Cell Signaling).

WARS secretion = WARS secretion in HUVEC cell media; type: cell-based, human; settings: HUVEC cells
Protocol: Human embryonic kidney (HEK) 293 cells were maintained in DMEM supplemented with 10% foetal calf serum and 100 U/ml penicillin and 100 μg/ml streptomycin. Human umbilical vein endothelial (HUVEC) cells and medium (EBM- and EBM-2 single Quats) were purchased from Lonza and used prior to passage 7. For plasmid transfections (for HEK293), cells were seeded a day before at 70% confluence and lipofectamine […] (InvitroGene) transfection reagents were used according to the company's instruction. For HUVEC transfection, Polyplus jetPEI-HUVEC transfection reagent (POLYPLUS-TRANSFECTION Inc. New York) was used according to the company's instruction. For gene transfer, HUVEC were grown to 80% confluence in 6-well plates or T75 flasks. Transduction of cells was performed with a multiplicity of infection (MOI) of 200 plaque-forming units (pfu) in a total volume of 1 ml (6-well plates) or 10 ml (T75 flasks) in HUVEC growth medium. […]
HUVEC cells were seeded in 6-well plates. […] The knockdown efficacy could not be determined by western blot since no antibody against WARS2 can detect endogenous WARS2, although two anti-WARS2 antibodies we made can detect WARS2 in lysates from cells expressing WARS2-flag. […]

human cytosolic WARS = biological target: T1, human cytosolic WARS (Homo sapiens, UniProt P23381); experiment: WARS AMP-Glo enzyme assay; type: biochemical; settings: indolmycin 10 micromolar; enzyme 200 nM; 37° C. one hour
T1 sequence (P23381 1-471): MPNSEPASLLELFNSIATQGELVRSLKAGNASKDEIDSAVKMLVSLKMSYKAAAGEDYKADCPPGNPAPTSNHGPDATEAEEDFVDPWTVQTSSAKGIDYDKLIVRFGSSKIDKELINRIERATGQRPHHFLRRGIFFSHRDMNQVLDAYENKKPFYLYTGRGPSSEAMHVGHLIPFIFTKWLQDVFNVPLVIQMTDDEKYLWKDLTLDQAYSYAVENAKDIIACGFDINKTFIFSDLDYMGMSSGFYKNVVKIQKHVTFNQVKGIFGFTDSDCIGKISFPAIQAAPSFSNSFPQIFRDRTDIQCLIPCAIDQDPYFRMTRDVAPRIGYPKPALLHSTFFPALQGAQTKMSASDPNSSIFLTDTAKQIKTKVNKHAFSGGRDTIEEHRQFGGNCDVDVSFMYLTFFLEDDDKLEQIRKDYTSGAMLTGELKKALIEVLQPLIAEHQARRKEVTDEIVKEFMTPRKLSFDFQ
Protocol: (§1) The WARS and WARS2 enzyme assay was performed using an ATP depletion assay based on a chemilumines optimized with the AMP-Glo™ reagent (Promega) using 96-well format assay. Reaction buffer contained 25 mM Tris-HCL pH7.2, 10 mM MgCl2, 50 mM KCl, 2.5 mM dithiothreitol, 0.1 mg/mL bovine serum albumin, 0.2 mM spermine, 10 U/mL pyrophosphatase and enzyme concentration used was 200 nM. Substrate concentrations were as follows: L-tryptophan 100 μM, bulk E. coli tRNA (Sigma) 200 μg/mL and ATP 100 μM. Reaction was carried out at 37° C. for one hour, followed by adding reagent I (AMP-glo kit). The plate was incubated at room temperature for another hour. At the end of the hour the AMP detection solution was added to all the samples and incubated for one hour at room temperature. Data was collected by measuring the luminescence with the Infinite M200 microplate Reader (Tecan). Indolmycin was added at 10 micromolar concentration where indicated.

[1] = biological target: T2, human mitochondrial WARS2 (Homo sapiens, UniProt Q9UGM6); experiment: WARS2 AMP-Glo enzyme assay; type: biochemical; settings: indolmycin 10 micromolar; enzyme 200 nM; 37° C. one hour
T2 construct: GST (inferred from GSH-bead purification; made in house; own inference)
T2 sequence (Q9UGM6 19-360): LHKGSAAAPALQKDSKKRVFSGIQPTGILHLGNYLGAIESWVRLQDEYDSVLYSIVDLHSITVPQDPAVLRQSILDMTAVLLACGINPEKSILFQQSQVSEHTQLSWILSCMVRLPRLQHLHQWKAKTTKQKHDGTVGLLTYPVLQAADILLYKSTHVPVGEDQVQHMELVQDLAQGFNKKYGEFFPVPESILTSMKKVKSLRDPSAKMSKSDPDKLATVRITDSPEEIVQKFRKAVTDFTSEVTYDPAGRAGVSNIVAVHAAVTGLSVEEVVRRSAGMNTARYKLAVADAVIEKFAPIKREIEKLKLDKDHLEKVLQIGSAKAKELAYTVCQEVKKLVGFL
Protocol: as §1

[2] = system: LASER-induced choroidal neovascularization (CNV); experiment: Rat model of LASER-induced choroidal neovascularization (CNV); type: in vivo; settings: Brown Norway rats; bilateral intravitreal injection Day 3 (siRNA 100 μg/eye, Ab 5 μg/eye); fluorescein angiography Day 22
Protocol: Non-targeting siRNA (negative control), Wars2 siRNA (test agent), and anti-VEGF Ab (positive control) were administered intravitreously into the eyes of Brown Norway female rats aged 6-8 weeks, according to the following design: • Day 1: Bilateral Laser treatment to produce three (3) lesions per eye • Day 3: Bilateral intravitreal injection of negative control, positive control, or test agent • Day 22: In-vivo fluorescein angiography • Day 22: Enucleation of eyes and fixation for future histological analyses • Three (3) groups of five (5) rats were used, as set out in Table 4.
Animals were dilated with 1% Cyclogyl solution and protected from light. Following observable dilation, the animals were sedated with ketamine/xylazine. The fundus of sedated animals was observed and recorded using a Micron III small animal funduscope (Phoenix Research). Laser treatments were performed using a thermal laser which was connected through the Micron III custom laser attachment. […] The resultant fundus images were recorded and evaluated to confirm that the laser had successfully produced a bubble through the Bruch's membrane. […]
All TIFF images were quantified using computerized image-analysis software (ImageJ, NIH, USA). Lesions were then individually traced free-hand in order to quantify the area in pixels and the colour fundus photos were used as a reference for lesion location. […]

Wars2 = experiment: In vivo knock down of Wars2 in rat eye using cholesterol modified siRNA; settings: F344 rats; 50 μg intravitreously; 48 hours; versus non-targeting siRNA in contralateral eye
Protocol: Both non-targeting (NT) siRNA and siWars2 were purchased from Dharmacon and formulated in the sterile siRNA buffer provided. Fifty (50) μg of siWars2 was injected intravitreously into one eye of each of three F344 rats in a total volume of 5 μl. The same dose of the NT control siRNA was injected into the contralateral eye of each animal. Retina and choroid were collected after 48 hours, and total RNA was extracted by Trizol (Ambion). cDNA was then synthesized according to the manufacturer's protocol (BioRad).
Real time PCR reactions to measure Wars2 expression were performed with the SYBRgreen mastermix (Qiagen) and normalized to GAPDH mRNA level by using the following primers: […]

human WARS2 mRNA = experiment: siWARS2 knock down in HEK 293 (QPCR); type: cell-based; settings: non targeting control = 1; for WARS2 mRNA expression, Experiment 1 / WARS2 mRNA expression, Experiment 2 / WARS2 mRNA expression, Experiment 3 / WARS2 mRNA expression, Experiment 4 / WARS2 mRNA expression, Experiment 5: 120 nM siRNA, QPCR normalized to GAPDH (ddCt); for WARS2 mRNA expression, Average: average of 5 experiments
Protocol: HEK cells were seeded the day before transfection on 10 cm dish. At a density of ˜50%, transfection was performed using RNAimax (manufacturer's protocol). siRNA was prepared by using a mixture of 120 nM siRNA and 20 μl lipofectamin RNAimax in 1 ml OPTIMEM. Cells were incubated, washed 1× with PBS, and then covered with 5 ml OPTIMEM and the lipofectamin/siRNA mixture added dropwise. Cells were incubated (6 h) and media then changed to (DMEM/10% FBS). RNA was extracted as per protocol (Qiagen). RNA quantification was assessed using Nanodrop and the quality was determined based on OD ratio 260 nm/280 nm. Reverse transcription was performed using 1 μg RNA (Biorad iScript™ cDNA synthesis protocol) and QPCR performed using the QuantiFAST SYBR green protocol.
All samples were analyzed in duplicates and the mean and standard deviation were determined. Specificity of the amplification was determined by a melting curve ranging from 60-95° C. Normalization to GAPDH was performed using the standard ddCt method.

| Molecule | WARS2 mRNA expression, Experiment 1 (human WARS2 mRNA) | WARS2 mRNA expression, Experiment 2 (human WARS2 mRNA) | WARS2 mRNA expression, Experiment 3 (human WARS2 mRNA) | WARS2 mRNA expression, Experiment 4 (human WARS2 mRNA) | WARS2 mRNA expression, Experiment 5 (human WARS2 mRNA) | WARS2 mRNA expression, Average (human WARS2 mRNA) | also measured |
| --- | --- | --- | --- | --- | --- | --- | --- |
| CC(C)C[C@@H](C=O)NC(=O)[C@H](CC(C)C)NC(=O)[C@H](CC(C)C)NC(=O)OCc1ccccc1 [MG132] (Cbz-Leu-Leu-Leu-aldehyde) |  |  |  |  |  |  | loss of RPL14a caused by over-expression of WARS2 (RPL14a): reversed |
| C[C@H]1CCC/C=C/[C@@H]2C[C@H](O)C[C@H]2[C@H](O)/C=C/C(=O)O1 [brefeldin A] |  |  |  |  |  |  | WARS secretion in presence of inhibitor of golgi-mediated secretion (WARS secretion): No effect |
| CN=C1NC(=O)[C@H]([C@H](C)c2c[nH]c3ccccc23)O1 [indolmycin] |  |  |  |  |  |  | inhibition of WARS enzyme activity (human cytosolic WARS): not human cytosolic WARS activity; inhibition of WARS2 enzyme activity [1]: inhibited human mitochondrial WARS2 |
| Wars2 siRNA: Rat Wars2 siRNA from Dharmacon: sense 5′-GCUCCAAUCAGAAGUGAUU-3′ (SEQ ID NO: 48), antisense 5′-UCACUUCUGAUUGGAGCUU-3′ (SEQ ID NO: 49) (cholesterol-modified siRNA, position of cholesterol not given here) |  |  |  |  |  |  | extent of neovascularization [2]: significant reduction in the extent of neovascularization; Wars2 expression in retina and choroid (Wars2): greater inhibition of Wars2 expression |
| siRNA 1: Sense 5′-GCAUUCAACCUACAGGAAU-3′ (SEQ ID NO: 50), antisense 5′-AUUCCUGUAGGUUGAAUGC-3′ (SEQ ID NO: 51) (listed as RNA, chemistry not given here) | 0.26 | 0.13 | 0.18 | 0.13 | 0.14 | 0.17 |  |
| siRNA 2: Sense 5′-CCGACAUUCUGUUGUACAA-3′ (SEQ ID NO: 52), antisense 5′-UUGUACAACAGAAUGUCGG-3′ (SEQ ID NO: 53) (listed as RNA, chemistry not given here) | 0.47 | 0.14 | 0.13 | 0.11 | 0.09 | 0.19 |  |
| siRNA 3: Sense 5′-GCUGGACAAGGACCAUUUA-3′ (SEQ ID NO: 54), antisense 5′-UAAAUGGUCCUUGUCCAGC-3′ (SEQ ID NO: 55) (listed as RNA, chemistry not given here) | 0.43 | 0.22 | 0.43 | 0.37 | 0.30 | 0.35 |  |
